Twelve compounds from PubChem BioAssay (NCI) can be followed below.

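Five concentrations, 48 hours, 96-well plates. TGI: total growth inhibition.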

The TGI is the concentration at which net growth stops. A lower TGI goes with greater sensitivity of the cells.

One assay deals with SK-MEL-2 melanoma. Nature of the assay: DTP human tumour cell line panel, 48 h.
As to `CCOC(=O)/C(N=Nc1ccc(-n2c(C)nc3ccccc3c2=O)cc1)=C(/C)O`, the concentration for total growth inhibition (TGI) is > 100 µM.
Same read-out and setting: with `COc1cc(OCc2ccc3nc(-c4ccccc4)c(N)nc3c2)cc(OC)c1OC` the figure was 43.9 µM; with `CCc1nnc(CC)n1NCCCC(=O)O`, > 100 µM.
Same read-out and setting: with `CCOC(=O)C(c1c[nH]c2ccccc12)(c1c[nH]c2ccccc12)c1c[nH]c2ccccc12` the figure was 59.7 µM; with `O=C1NC(N2CCOCC2)=N/C1=C\c1cccs1`, > 100 µM; with `O=c1[nH]c(=O)n(C2OC(CO)C(O)C(F)C2O)cc1F` (stereo not drawn), > 100 µM.

The test system of another assay is M14 melanoma. Description: DTP human tumour cell line panel, 48 h.
The compound `CC(C)OP(=O)(OC(C)C)C(C(C)C)N(C)/C(N)=N\C1=NC(C(F)(F)F)(C(F)(F)F)N=C(C(C(F)(F)F)C(F)(F)F)O1` (stereo not drawn) yielded a TGI of 4.23 µM.
Still for that read-out and setting: with `O=C(c1ccc(Cl)cc1Cl)N(C(=O)N1CCC(c2ccccc2)CC1)c1ccccc1` the figure was > 100 µM; with `NCCCCNCCCN1CC1`, > 100 µM.
Still for that read-out and setting: to `O=C1CSC2(CC(/C=C/c3ccccc3O)=NN2c2cccc(S(=O)(=O)O)c2)N1c1nc2ccccc2s1` (stereo not drawn) belongs > 100 µM; to `O=c1n(/N=C/c2ccccc2)c(=O)n2n1C1C=CC2CC1`, > 100 µM; to `COc1cc(Br)c(OC)c2c(OC)cc(C)cc12`, > 100 µM.
Same read-out and setting: to `CCOC(=O)/C(N=Nc1ccc(-n2c(C)nc3ccccc3c2=O)cc1)=C(/C)O` belongs > 100 µM.
For the compound `COc1cc(OCc2ccc3nc(-c4ccccc4)c(N)nc3c2)cc(OC)c1OC`, the TGI came to 29.3 µM.
For `CCc1nnc(CC)n1NCCCC(=O)O`, the concentration for total growth inhibition (TGI) was > 100 µM.
Still for that read-out and setting: with `CCOC(=O)C(c1c[nH]c2ccccc12)(c1c[nH]c2ccccc12)c1c[nH]c2ccccc12` the figure was > 100 µM; with `O=C1NC(N2CCOCC2)=N/C1=C\c1cccs1`, > 100 µM; with `O=c1[nH]c(=O)n(C2OC(CO)C(O)C(F)C2O)cc1F` (stereo not drawn), > 100 µM.

The subject of another assay is MOLT-4 leukemia. Nature of the assay: DTP human tumour cell line panel, 48 h.
Regarding `CC(C)OP(=O)(OC(C)C)C(C(C)C)N(C)/C(N)=N\C1=NC(C(F)(F)F)(C(F)(F)F)N=C(C(C(F)(F)F)C(F)(F)F)O1` (stereo not drawn), the concentration for total growth inhibition (TGI) came out at 4.78 µM.
Still for that read-out and setting: to `O=C(c1ccc(Cl)cc1Cl)N(C(=O)N1CCC(c2ccccc2)CC1)c1ccccc1` belongs 75 µM; to `O=C1CSC2(CC(/C=C/c3ccccc3O)=NN2c2cccc(S(=O)(=O)O)c2)N1c1nc2ccccc2s1` (stereo not drawn), 82.9 µM.
On the same count and under the same terms, to `O=c1n(/N=C/c2ccccc2)c(=O)n2n1C1C=CC2CC1` belongs > 100 µM.
On to `COc1cc(Br)c(OC)c2c(OC)cc(C)cc12`, for which the TGI was > 100 µM.
The same measure, in the same setting: with `CCOC(=O)/C(N=Nc1ccc(-n2c(C)nc3ccccc3c2=O)cc1)=C(/C)O` the figure was 64.1 µM; with `COc1cc(OCc2ccc3nc(-c4ccccc4)c(N)nc3c2)cc(OC)c1OC`, 28.8 µM; with `CCc1nnc(CC)n1NCCCC(=O)O`, > 100 µM.
In turn, `CCOC(=O)C(c1c[nH]c2ccccc12)(c1c[nH]c2ccccc12)c1c[nH]c2ccccc12` returned a total growth inhibition concentration (TGI) of 40.8 µM.
Same read-out and setting: to `O=C1NC(N2CCOCC2)=N/C1=C\c1cccs1` belongs > 100 µM.
Still for that read-out and setting: with `O=c1[nH]c(=O)n(C2OC(CO)C(O)C(F)C2O)cc1F` (stereo not drawn) the figure was 62 µM.

Another assay concerns SNB-19 CNS. Description: DTP human tumour cell line panel, 48 h.
In the case of `CC(C)OP(=O)(OC(C)C)C(C(C)C)N(C)/C(N)=N\C1=NC(C(F)(F)F)(C(F)(F)F)N=C(C(C(F)(F)F)C(F)(F)F)O1` (stereo not drawn), the TGI is 44.9 µM.
As for `O=C(c1ccc(Cl)cc1Cl)N(C(=O)N1CCC(c2ccccc2)CC1)c1ccccc1`, the TGI is > 100 µM.
Still for that read-out and setting: with `NCCCCNCCCN1CC1` the figure was 22.5 µM; with `O=C1CSC2(CC(/C=C/c3ccccc3O)=NN2c2cccc(S(=O)(=O)O)c2)N1c1nc2ccccc2s1` (stereo not drawn), > 100 µM.
With `O=c1n(/N=C/c2ccccc2)c(=O)n2n1C1C=CC2CC1`, the TGI is > 100 µM.
In the case of `COc1cc(Br)c(OC)c2c(OC)cc(C)cc12`, the TGI was > 100 µM.
Still for that read-out and setting: with `CCOC(=O)/C(N=Nc1ccc(-n2c(C)nc3ccccc3c2=O)cc1)=C(/C)O` the figure was > 100 µM.
Still for that read-out and setting: with `COc1cc(OCc2ccc3nc(-c4ccccc4)c(N)nc3c2)cc(OC)c1OC` the figure was > 100 µM; with `CCc1nnc(CC)n1NCCCC(=O)O`, > 100 µM; with `CCOC(=O)C(c1c[nH]c2ccccc12)(c1c[nH]c2ccccc12)c1c[nH]c2ccccc12`, > 100 µM.
Still for that read-out and setting: to `O=C1NC(N2CCOCC2)=N/C1=C\c1cccs1` belongs > 100 µM; to `O=c1[nH]c(=O)n(C2OC(CO)C(O)C(F)C2O)cc1F` (stereo not drawn), > 100 µM.

For the next assay, the system named is BT-549 breast. Description: DTP human tumour cell line panel, 48 h.
`CC(C)OP(=O)(OC(C)C)C(C(C)C)N(C)/C(N)=N\C1=NC(C(F)(F)F)(C(F)(F)F)N=C(C(C(F)(F)F)C(F)(F)F)O1` (stereo not drawn) gave a total growth inhibition concentration (TGI) of 8.2 µM. This lies in the single-digit micromolar range.
Still for that read-out and setting: with `O=C(c1ccc(Cl)cc1Cl)N(C(=O)N1CCC(c2ccccc2)CC1)c1ccccc1` the figure was > 100 µM; with `NCCCCNCCCN1CC1`, 17.4 µM; with `O=C1CSC2(CC(/C=C/c3ccccc3O)=NN2c2cccc(S(=O)(=O)O)c2)N1c1nc2ccccc2s1` (stereo not drawn), 77 µM.
The same measure, in the same setting: with `O=c1n(/N=C/c2ccccc2)c(=O)n2n1C1C=CC2CC1` the figure was > 100 µM.
Consider `COc1cc(Br)c(OC)c2c(OC)cc(C)cc12`, for which the TGI was > 100 µM.
The same measure, in the same setting: to `CCOC(=O)/C(N=Nc1ccc(-n2c(C)nc3ccccc3c2=O)cc1)=C(/C)O` belongs > 100 µM; to `COc1cc(OCc2ccc3nc(-c4ccccc4)c(N)nc3c2)cc(OC)c1OC`, 49 µM.
On the same count and under the same terms, to `CCc1nnc(CC)n1NCCCC(=O)O` belongs > 100 µM.
On the same count and under the same terms, with `CCOC(=O)C(c1c[nH]c2ccccc12)(c1c[nH]c2ccccc12)c1c[nH]c2ccccc12` the figure was > 100 µM; with `O=C1NC(N2CCOCC2)=N/C1=C\c1cccs1`, > 100 µM.
`O=c1[nH]c(=O)n(C2OC(CO)C(O)C(F)C2O)cc1F` (stereo not drawn): the TGI was > 100 µM.
